Assay results from patent publication US7294648B2, “Anthranyl derivatives having an anticholecystokinin activity (anti-cck-1), a process for their preparation, and pharmaceutical use thereof” (Rottapharm S.p.A., priority 2002, dated 2007).
Like-named read-outs stand apart in the source and are kept apart here.

Columns and labels:
CCK-1 receptors = target: T1, CCK-1 receptors (Rattus norvegicus, UniProt P30551); test: Inhibition of binding of [125I]-BH-CCK-8 to isolated rat pancreatic acini; settings: for affinity for the CCK-1 receptors of the pancreatic acini of rat, in words: summary of Table 2
T1 construct: The pancreatic acini obtained from the outbred male rat pancreas of the Sprague Dawley strain; from tissue; host or cells: isolated pancreatic acini of male Sprague Dawley rats
T1 sequence (P30551 1-444): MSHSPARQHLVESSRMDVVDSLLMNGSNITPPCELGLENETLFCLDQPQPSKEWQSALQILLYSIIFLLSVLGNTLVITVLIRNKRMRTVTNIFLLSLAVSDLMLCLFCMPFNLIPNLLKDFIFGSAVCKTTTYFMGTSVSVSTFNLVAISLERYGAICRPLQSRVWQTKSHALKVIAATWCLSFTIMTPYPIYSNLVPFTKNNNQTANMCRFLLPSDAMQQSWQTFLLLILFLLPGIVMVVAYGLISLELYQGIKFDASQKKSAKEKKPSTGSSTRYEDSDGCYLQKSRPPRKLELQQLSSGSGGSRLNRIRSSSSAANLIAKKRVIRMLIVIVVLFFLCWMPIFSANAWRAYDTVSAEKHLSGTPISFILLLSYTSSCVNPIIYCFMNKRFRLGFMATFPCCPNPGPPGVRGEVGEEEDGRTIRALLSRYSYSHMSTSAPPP
Experimental: The pancreatic acini obtained from the outbred male rat pancreas of the Sprague Dawley strain, were incubated in the presence of radioactive tracers and the compound studied for 30 minutes at 37° C. After having discarded the supernatant, the radioactivity associated with the pellet was determined with a liquid scintillator. The specific binding was determined as the difference between the binding in the absence and in the presence of CCK-8, 1.10^−6M. […] The values of IC50 reported were calculated with the […] of a set of at least 3 experiences for each compound studied.

CCK-2 receptor [1] = target: T2, CCK-2 receptor (Cavia porcellus, UniProt H0VZC5); test: Inhibition of the binding of [125I]-BH-CCK-8 to the cortical membrane of guinea pigs; parameters: species or system guinea pig; settings: 120 minutes at 25° C.; 25 pM marked binder; at least 3 tests
T2 construct: The incubation of the cerebral membranes together with the radioactive tracers and the compounds under study; from tissue; host or cells: cerebral cortex membranes of male albino Hartley guinea pigs
T2 sequence (H0VZC5 1-426): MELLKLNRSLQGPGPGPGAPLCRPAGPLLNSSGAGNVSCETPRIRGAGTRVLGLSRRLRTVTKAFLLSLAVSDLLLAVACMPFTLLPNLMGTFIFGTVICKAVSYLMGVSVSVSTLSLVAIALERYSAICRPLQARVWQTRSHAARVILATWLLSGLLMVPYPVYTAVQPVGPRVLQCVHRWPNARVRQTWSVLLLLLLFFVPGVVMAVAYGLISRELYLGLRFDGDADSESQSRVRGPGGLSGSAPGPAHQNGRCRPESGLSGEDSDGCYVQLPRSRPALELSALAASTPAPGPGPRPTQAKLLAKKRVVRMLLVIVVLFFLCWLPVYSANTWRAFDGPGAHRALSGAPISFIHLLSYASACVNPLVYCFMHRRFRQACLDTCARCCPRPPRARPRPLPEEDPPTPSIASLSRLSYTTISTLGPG
Experimental: (§1) For this purpose binding tests were performed on cerebral cortex of male albino guinea pigs outbred from the Hartley strain, using as marked binder the [^125I]-BH-CCK-8 sulphate, according to the procedure described by Makovec F. [J. Med. Chem. 35, (1992),28].
(§2) The incubation of the cerebral membranes together with the radioactive tracers and the compounds under study was effected on multi-well plates for 120 minutes at 25° C. Each well contained membrane corresponding to about 0.5 mg of proteins/ml and 25 pM of marked binder in a total volume of 250 micro litres. The specific binding was determined as the difference between the binding in the absence and in the presence of CCK-8, 1.10^−6M. At the end of the incubation a rapid filtration of the plate was performed under vacuum and the radioactivity of the individual filters extracted from the wells was measured with a γ-emission counter. The results obtained are shown in Table 3, in which the tested compounds are indicated, the IC50 calculated with the regression method on a set of at least 3 tests for each compound studied and an index derived from the ratio of the affinity obtained for the two types of receptor CCK-2 and CCK-1.

CCK-2 receptor [2] = test: as above; parameters: species or system guinea pig; settings: IC50 CCK-2 (guinea pig cortex) / IC50 CCK-1 (rat pancreatic acini, Table 2)
Experimental: as §1, §2

[3] = target: T3, CCK-1 (guinea pig gall bladder) (Cavia porcellus, UniProt Q63931); test: Inhibition of the in vitro CCK-8 induced contraction of guinea pig gall bladder; type: cell-based; settings: CCK-8 5 ng/ml; average of at least two experiments, 6-8 concentrations
T3 construct: A guinea pig gall bladder stimulated in vitro by CCK-8; from tissue; host or cells: isolated guinea pig gall bladder
T3 sequence (Q63931 1-430): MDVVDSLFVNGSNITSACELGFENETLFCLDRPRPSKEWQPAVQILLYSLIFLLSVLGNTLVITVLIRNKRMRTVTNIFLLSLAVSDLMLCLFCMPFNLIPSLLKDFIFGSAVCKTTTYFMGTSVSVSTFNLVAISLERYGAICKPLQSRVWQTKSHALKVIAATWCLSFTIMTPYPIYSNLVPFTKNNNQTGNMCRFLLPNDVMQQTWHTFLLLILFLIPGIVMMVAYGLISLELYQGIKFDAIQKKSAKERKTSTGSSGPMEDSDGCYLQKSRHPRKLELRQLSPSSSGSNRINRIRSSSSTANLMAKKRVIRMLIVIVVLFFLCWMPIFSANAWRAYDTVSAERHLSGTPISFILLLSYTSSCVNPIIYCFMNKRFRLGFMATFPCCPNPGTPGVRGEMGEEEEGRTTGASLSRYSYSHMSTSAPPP
Excerpt: A guinea pig gall bladder stimulated in vitro by CCK-8 according to the method described by Makovec et al. was used as an experimental model. [Arzneim. Forsch. Drug Res. 35 (7), 1048 (1985)]. The results thus obtained are illustrated in the following Table 4 in which the values of IC50 (moles/litre) are reported.

[4] = 30 minutes at 37° C., at least 3 experiments, read-out: IC50, inhibition of binding of [125I]-BH-CCK-8 to isolated rat pancreatic acini

SMILES	IC50 (CCK-2 receptor [1]) [nM]	index derived from the ratio of the affinity obtained for the two types of receptor CCK-2 and CCK-1 (CCK-2 receptor [2])	IC50 [3] [nM]	affinity for the CCK-1 receptors of the pancreatic acini of rat, in words (CCK-1 receptors)	IC50 (CCK-1 receptors; [4]) [nM]	IC50 (CCK-1 receptors) [nM]
O=C(Nc1ccccc1C(=O)NC(CCc1ccccc1)C(=O)O)c1cc2ccccc2[nH]1 (centres unmarked) [Compound 20]	2220	158.6	35			14
O=C(Nc1ccccc1C(=O)N[C@H](CCc1ccccc1)C(=O)O)c1cc2ccccc2[nH]1 [Compound 21]	3800	422.2	20	nanomolar level		9
Cc1ccccc1CCC(NC(=O)c1ccccc1NC(=O)c1cc2cc(F)ccc2[nH]1)C(=O)O (centres unmarked) [Compound 26]	5150	572.2	43	nanomolar level	9	

Now from value to compound, other results behind:

IC50 (CCK-2 receptor [1]) [nM]	index derived from the ratio of the affinity obtained for the two types of receptor CCK-2 and CCK-1 (CCK-2 receptor [2])	IC50 [3] [nM]	affinity for the CCK-1 receptors of the pancreatic acini of rat, in words (CCK-1 receptors)	IC50 (CCK-1 receptors; [4]) [nM]	SMILES	IC50 (CCK-1 receptors) [nM]
10800	1542.9	15	nanomolar level	7	O=C(Nc1ccccc1C(=O)NC(CCc1ccccc1)C(=O)O)c1cc2cc(F)ccc2[nH]1 (centres unmarked) [Compound 23]	
> 30000	>4286	8	nanomolar level	7	Cc1ccccc1CCC(NC(=O)c1ccccc1NC(=O)c1cc2ccccc2[nH]1)C(=O)O (centres unmarked) [Compound 25]	
3500	437.5	30	nanomolar level	8	COc1ccccc1CCC(NC(=O)c1ccccc1NC(=O)c1cc2ccccc2[nH]1)C(=O)O (centres unmarked) [Compound 30]	
